{
  "source": "ChEMBL document CHEMBL5233247",
  "about": "“Recent advances in DNA gyrase-targeted antimicrobial agents” (Eur J Med Chem, 2020)",
  "key": {"[1]": {"target": "T1, DNA gyrase subunit A/DNA gyrase subunit B (Mycobacterium tuberculosis (strain ATCC 25618 / H37Rv), UniProt P9WG45+P9WG47)", "T1 sequence (P9WG45 whole entry)": "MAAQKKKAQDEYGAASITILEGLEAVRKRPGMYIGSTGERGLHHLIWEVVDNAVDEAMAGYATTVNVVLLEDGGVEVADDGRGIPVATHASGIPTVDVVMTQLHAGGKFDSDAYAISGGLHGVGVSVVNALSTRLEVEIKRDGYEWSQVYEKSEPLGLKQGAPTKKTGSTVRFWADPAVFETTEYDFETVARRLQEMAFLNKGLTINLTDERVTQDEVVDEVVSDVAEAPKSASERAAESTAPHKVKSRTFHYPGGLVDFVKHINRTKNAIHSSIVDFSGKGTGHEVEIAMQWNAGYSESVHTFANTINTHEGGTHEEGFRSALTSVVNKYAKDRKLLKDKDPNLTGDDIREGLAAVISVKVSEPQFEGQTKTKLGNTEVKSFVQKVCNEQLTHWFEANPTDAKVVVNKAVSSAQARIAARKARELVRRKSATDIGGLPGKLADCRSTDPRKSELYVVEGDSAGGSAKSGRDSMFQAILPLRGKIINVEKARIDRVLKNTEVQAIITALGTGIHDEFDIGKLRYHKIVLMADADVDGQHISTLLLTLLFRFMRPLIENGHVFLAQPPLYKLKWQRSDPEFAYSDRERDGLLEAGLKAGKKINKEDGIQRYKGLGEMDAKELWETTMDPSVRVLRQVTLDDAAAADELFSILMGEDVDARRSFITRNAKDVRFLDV", "T1 sequence (P9WG47 whole entry)": "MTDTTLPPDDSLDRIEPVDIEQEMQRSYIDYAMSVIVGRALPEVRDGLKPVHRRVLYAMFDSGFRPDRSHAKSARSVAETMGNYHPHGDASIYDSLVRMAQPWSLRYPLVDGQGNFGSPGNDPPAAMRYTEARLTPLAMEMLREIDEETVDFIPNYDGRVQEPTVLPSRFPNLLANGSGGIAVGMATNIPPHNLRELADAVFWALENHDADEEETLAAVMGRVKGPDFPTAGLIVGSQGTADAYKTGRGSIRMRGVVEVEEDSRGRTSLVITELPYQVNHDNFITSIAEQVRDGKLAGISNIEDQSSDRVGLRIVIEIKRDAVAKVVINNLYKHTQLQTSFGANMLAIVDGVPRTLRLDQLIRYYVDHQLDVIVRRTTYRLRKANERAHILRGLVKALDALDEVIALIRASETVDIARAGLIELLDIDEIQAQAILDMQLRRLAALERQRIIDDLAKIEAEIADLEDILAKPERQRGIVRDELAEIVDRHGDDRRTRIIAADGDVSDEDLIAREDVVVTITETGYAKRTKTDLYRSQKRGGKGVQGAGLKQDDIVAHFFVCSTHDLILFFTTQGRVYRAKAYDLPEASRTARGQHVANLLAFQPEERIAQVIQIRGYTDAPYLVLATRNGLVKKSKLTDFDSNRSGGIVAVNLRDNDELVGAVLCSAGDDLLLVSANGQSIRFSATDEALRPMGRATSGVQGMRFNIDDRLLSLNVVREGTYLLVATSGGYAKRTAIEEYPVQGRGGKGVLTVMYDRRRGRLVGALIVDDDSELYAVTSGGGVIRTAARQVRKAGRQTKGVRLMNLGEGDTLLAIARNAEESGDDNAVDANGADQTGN", "test": "Inhibition of Mycobacterium tuberculosis (MTB) DNA gyrase using pBR322 DNA by supercoiling assay", "assay_type": "protein-complex assay"}, "[2]": {"test_system": "Mycobacterium tuberculosis", "test": "Antimycobacterial activity against Mycobacterium tuberculosis incubated for 7 days by MABA assay", "assay_type": "functional", "details": "168 h, time 7 day"}, "[3]": {"target": "DNA gyrase (Escherichia coli, UniProt P0AES4+P0AES6)", "test": "Inhibition of Escherichia coli DNA gyrase", "assay_type": "protein-complex assay"}, "[4]": {"test_system": "Acinetobacter baumannii", "test": "Antibacterial activity against Acinetobacter baumannii", "assay_type": "functional"}, "[5]": {"test_system": "Staphylococcus aureus", "test": "Antibacterial activity against methicillin-sensitive Staphylococcus aureus", "assay_type": "functional, organism-based"}, "[6]": {"test_system": "Staphylococcus aureus", "test": "Antibacterial activity against healthcare-acquired methicillin-resistant Staphylococcus aureus", "assay_type": "functional"}, "[7]": {"test_system": "Streptococcus pneumoniae", "test": "Antibacterial activity against Streptococcus pneumoniae", "assay_type": "functional"}, "[8]": {"target": "T1, DNA gyrase subunit A/DNA gyrase subunit B", "test": "Inhibition of Mycobacterium tuberculosis DNA gyrase", "assay_type": "protein-complex assay"}, "[9]": {"test_system": "Enterococcus faecalis", "test": "Antibacterial activity against Enterococcus faecalis", "assay_type": "functional"}, "[10]": {"test_system": "Staphylococcus aureus", "test": "Antibacterial activity against community-acquired methicillin-resistant Staphylococcus aureus", "assay_type": "functional"}, "[11]": {"test_system": "Mycobacterium tuberculosis", "test": "Anti-tubercular activity against Mycobacterium tuberculosis H37Rv strain", "assay_type": "functional"}, "[12]": {"test_system": "Bacillus subtilis", "test": "Antibacterial activity against Bacillus subtilis DSM 10 by microdilution assay", "assay_type": "functional"}, "[13]": {"test_system": "Mycolicibacterium phlei", "test": "Antibacterial activity against Mycobacterium phlei DSM 750 by microdilution assay", "assay_type": "functional"}, "[14]": {"target": "T2, DNA gyrase (Staphylococcus aureus, UniProt P0A0K8+P20831)", "T2 sequence (P0A0K8 whole entry)": "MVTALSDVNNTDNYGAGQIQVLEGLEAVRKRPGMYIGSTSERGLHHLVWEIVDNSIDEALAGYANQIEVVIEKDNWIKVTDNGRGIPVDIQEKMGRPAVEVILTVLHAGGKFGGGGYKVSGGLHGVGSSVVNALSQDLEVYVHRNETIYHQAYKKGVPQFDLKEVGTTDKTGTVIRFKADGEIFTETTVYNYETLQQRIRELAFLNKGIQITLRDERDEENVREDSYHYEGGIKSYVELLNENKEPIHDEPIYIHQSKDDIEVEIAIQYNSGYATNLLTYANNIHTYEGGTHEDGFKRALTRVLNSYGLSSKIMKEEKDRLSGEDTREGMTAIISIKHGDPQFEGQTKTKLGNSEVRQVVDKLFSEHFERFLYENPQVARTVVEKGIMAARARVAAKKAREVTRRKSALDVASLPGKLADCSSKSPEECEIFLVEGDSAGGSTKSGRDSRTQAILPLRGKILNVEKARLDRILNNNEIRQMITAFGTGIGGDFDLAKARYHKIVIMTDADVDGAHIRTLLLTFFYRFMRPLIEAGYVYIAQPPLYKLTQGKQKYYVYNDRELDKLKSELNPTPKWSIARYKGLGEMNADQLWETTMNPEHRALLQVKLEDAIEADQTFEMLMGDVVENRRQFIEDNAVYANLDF", "T2 sequence (P20831 whole entry)": "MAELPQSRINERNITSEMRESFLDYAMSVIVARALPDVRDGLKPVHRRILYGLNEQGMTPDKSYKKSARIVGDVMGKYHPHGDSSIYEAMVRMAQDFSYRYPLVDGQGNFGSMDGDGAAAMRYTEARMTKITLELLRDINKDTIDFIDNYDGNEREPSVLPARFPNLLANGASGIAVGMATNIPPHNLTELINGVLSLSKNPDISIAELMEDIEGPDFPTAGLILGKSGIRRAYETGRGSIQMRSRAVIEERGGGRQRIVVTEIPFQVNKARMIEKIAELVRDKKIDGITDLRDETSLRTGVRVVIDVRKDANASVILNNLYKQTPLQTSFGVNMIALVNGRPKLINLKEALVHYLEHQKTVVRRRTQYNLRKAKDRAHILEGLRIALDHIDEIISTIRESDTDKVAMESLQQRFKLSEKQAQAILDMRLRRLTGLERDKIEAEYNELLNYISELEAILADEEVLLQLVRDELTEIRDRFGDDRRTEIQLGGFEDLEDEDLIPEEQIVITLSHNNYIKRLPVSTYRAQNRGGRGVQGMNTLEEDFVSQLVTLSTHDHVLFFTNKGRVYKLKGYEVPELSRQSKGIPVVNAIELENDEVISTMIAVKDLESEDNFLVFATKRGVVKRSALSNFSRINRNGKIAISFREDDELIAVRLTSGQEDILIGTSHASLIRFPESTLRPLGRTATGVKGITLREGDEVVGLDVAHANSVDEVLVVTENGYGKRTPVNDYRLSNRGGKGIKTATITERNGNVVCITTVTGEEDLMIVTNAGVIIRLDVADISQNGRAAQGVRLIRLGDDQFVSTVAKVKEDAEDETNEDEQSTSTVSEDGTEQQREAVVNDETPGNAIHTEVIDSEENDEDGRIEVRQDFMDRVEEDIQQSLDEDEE", "test": "Inhibition of Staphylococcus aureus DNA gyrase assessed as relaxation of pBR322 DNA by supercoiling assay", "assay_type": "protein-complex assay"}, "[15]": {"test_system": "Aggregatibacter actinomycetemcomitans", "test": "Antibacterial activity against Aggregatibacter actinomycetemcomitans", "assay_type": "functional"}, "[16]": {"test_system": "Salmonella typhimurium", "test": "Antibacterial activity against Salmonella typhimurium assessed as inhibition was bacterial growth by broth micro dilution method", "assay_type": "functional, Salmonella enterica subsp. enterica serovar Typhimurium", "details": "Salmonella enterica"}, "[17]": {"test": "Inhibition of Salmonella typhimurium DNA gyrase", "parameters": "species or system Salmonella enterica subsp. enterica serovar Typhimurium"}, "[18]": {"test_system": "Salmonella enterica", "test": "Antibacterial activity against Salmonella enterica assessed as inhibition was bacterial growth by broth micro dilution method", "assay_type": "functional"}, "[19]": {"test_system": "Escherichia coli", "test": "Antimicrobial activity against Escherichia coli MSCL 332 assessed as inhibition of bacterial growth incubated for 24 hrs by standardized broth dilution method", "assay_type": "functional"}, "[20]": {"test_system": "Staphylococcus aureus", "test": "Antimicrobial activity against Staphylococcus aureus MSCL 334 assessed as inhibition of bacterial growth incubated for 24 hrs by standardized broth dilution method", "assay_type": "functional"}, "[21]": {"test_system": "Bacillus subtilis", "test": "Antimicrobial activity against Bacillus subtilis assessed as inhibition of bacterial growth incubated for 24 hrs by standardized broth dilution method", "assay_type": "functional"}, "[22]": {"test_system": "Mycobacterium tuberculosis", "test": "Antitubercular activity against Mycobacterium tuberculosis H37Rv MTCC-200", "assay_type": "functional"}, "[23]": {"test_system": "Staphylococcus aureus", "test": "Antibacterial activity against methicillin-resistant Staphylococcus aureus", "assay_type": "functional, organism-based"}, "[24]": {"target": "T2, DNA gyrase", "test": "Inhibition of Staphylococcus aureus DNA gyrase", "assay_type": "protein-complex assay"}, "[25]": {"test_system": "Bacillus cereus", "test": "Antibacterial activity against Bacillus cereus", "assay_type": "functional"}, "[26]": {"test_system": "Pseudomonas aeruginosa", "test": "Antibacterial activity against Pseudomonas aeruginosa", "assay_type": "functional"}, "[27]": {"test_system": "Escherichia coli", "test": "Antibacterial activity against Escherichia coli", "assay_type": "functional"}, "[28]": {"test_system": "Mycolicibacterium smegmatis", "test": "Antibacterial activity against Mycobacterium smegmatis", "assay_type": "functional"}, "[29]": {"test_system": "Staphylococcus aureus", "test": "Antibacterial activity against Staphylococcus aureus", "assay_type": "functional"}, "[30]": {"test_system": "Klebsiella pneumoniae", "test": "Antibacterial activity against Klebsiella pneumoniae", "assay_type": "functional"}},
  "note": "pIC50: −log10 of the molar value. Several values for one entry are separate records, joined by “and”; a condition that tells them apart may be missing. Equal values may be shown once.",
  "data": [
    {"smiles": "Cc1ccc(NC(=S)N2CCN(c3nc(=O)c4cc([N+](=O)[O-])ccc4s3)CC2)cc1", "values": [
      {"measurement": "pIC50", "setting": "[1]", "result": 6.11},
      {"measurement": "MIC", "setting": "[2]", "result": 1.82, "unit": "µM"}
    ]},
    {"smiles": "COC(=O)CNC(=O)c1ccc(NC(=O)c2cc(Cl)c(Cl)[nH]2)c(OCC(C)C)c1", "values": [
      {"measurement": "pIC50", "setting": "[3]", "result": 5.64}
    ]},
    {"smiles": "COc1c(N2CCCCC2)c(F)cc2c(=O)c(C(=O)N3CCSC3)cn(C3CC3)c12", "values": [
      {"measurement": "MIC", "setting": "[4]", "result": 12.6, "unit": "µg/mL"},
      {"measurement": "MIC", "setting": "[5]", "result": 0.39, "unit": "µg/mL"},
      {"measurement": "MIC", "setting": "[6]", "result": 0.62, "unit": "µg/mL"},
      {"measurement": "MIC", "setting": "[7]", "result": 25, "unit": "µg/mL"},
      {"measurement": "pIC50", "setting": "[8]", "result": 3.98},
      {"measurement": "MIC", "setting": "[9]", "result": 12.6, "unit": "µg/mL"},
      {"measurement": "MIC", "setting": "[10]", "result": 25, "unit": "µg/mL"}
    ]},
    {"smiles": "COC(=O)c1ccc(CNC(=O)[C@H](Cc2ccc(O)cc2)NC(=O)c2cc(Br)c(Br)[nH]2)cc1", "values": [
      {"measurement": "pIC50", "setting": "[3]", "result": 6.01}
    ]},
    {"smiles": "O=c1nc(N2CCN(C(=S)Nc3ccc(Cl)cc3)CC2)sc2ccc([N+](=O)[O-])cc12", "values": [
      {"measurement": "pIC50", "setting": "[1]", "result": 6.09},
      {"measurement": "MIC", "setting": "[2]", "result": 2.83, "unit": "µM"}
    ]},
    {"smiles": "COc1cc(C(=O)NCC(=O)O)ccc1NC(=O)c1cc(Cl)c(Cl)[nH]1", "values": [
      {"measurement": "pIC50", "setting": "[3]", "result": 6.92}
    ]},
    {"smiles": "COc1cc(/C=N/Nc2nc(-c3ccc(Br)cc3)cs2)ccc1Oc1ccnc2cc(Cl)ccc12", "values": [
      {"measurement": "MIC", "setting": "[11]", "result": 3.12, "unit": "µM"}
    ]},
    {"smiles": "NC(=O)c1cnccn1", "note": "[PYRAZINAMIDE]", "values": [
      {"measurement": "MIC", "setting": "[11]", "result": 3.12, "unit": "µM"}
    ]},
    {"smiles": "COc1c(NC(=O)c2ccc(NC(=O)[C@H](CC#N)NC(=O)c3ccc(NC(=O)/C(C)=C/c4ccc(O)cc4)cc3)c(OC)c2O)ccc(C(=O)O)c1O", "values": [
      {"measurement": "MIC", "setting": "[12]", "result": 0.062, "unit": "µM"},
      {"measurement": "MIC", "setting": "[13]", "result": 2, "unit": "µM"}
    ]},
    {"smiles": "O=C1COc2ccc(CNC3CCN(CCn4c(=O)c5nocc5c5ccc(F)cc54)CC3)nc2N1", "values": [
      {"measurement": "pIC50", "setting": "[3]", "result": 6.37}
    ]},
    {"smiles": "COc1cc2c(cc1OCCCC(=O)Nc1cc(C(=O)Nc3ccc4sccc4c3)n(C)c1)N=C[C@@H]1CCCN1C2=O", "values": [
      {"measurement": "pIC50", "setting": "[14]", "result": 5.41}
    ]},
    {"smiles": "O=C(O)c1ccc(CNC(=O)[C@H](Cc2ccc(O)cc2)NC(=O)c2cc(Br)c(Br)[nH]2)cc1", "values": [
      {"measurement": "pIC50", "setting": "[3]", "result": 6.21}
    ]},
    {"smiles": "CCn1cc(-c2nc(NC(=O)c3ccccc3)n[nH]2)c(=O)c2cc(Br)c(C)nc21", "values": [
      {"measurement": "MIC", "setting": "[15]", "result": 4.25, "unit": "µM"}
    ]},
    {"smiles": "COc1c(N2CC3(CC3)[C@@](C)(N)C2)c(F)cc2c(=O)c(C(=O)O)cn([C@@H]3C[C@@H]3F)c12", "values": [
      {"measurement": "MIC", "setting": "[16]", "result": 0.13, "unit": "µg/mL"},
      {"measurement": "IC50", "setting": "[17]", "result": "0.32 µg/mL and 0.25 µg/mL"},
      {"measurement": "MIC", "setting": "[18]", "result": 0.06, "unit": "µg/mL"}
    ]},
    {"smiles": "CCCCCCCOCC[N+]1(C)CCc2ccccc2C1.[I-]", "note": "(stereo unspecified)", "values": [
      {"measurement": "MIC", "setting": "[19]", "result": 128, "unit": "µg/mL"},
      {"measurement": "MIC", "setting": "[20]", "result": 8, "unit": "µg/mL"},
      {"measurement": "MIC", "setting": "[21]", "result": 128, "unit": "µg/mL"}
    ]},
    {"smiles": "COc1ccc(C(=O)Oc2ccc(/C=C3\\C(=O)Nc4ccccc43)cc2)cc1OC", "values": [
      {"measurement": "MIC", "setting": "[22]", "result": 31, "unit": "µg/mL"}
    ]},
    {"smiles": "COc1cc(/C=N/Nc2nc(-c3ccc(Cl)cc3)cs2)ccc1Oc1ccnc2cc(Cl)ccc12", "values": [
      {"measurement": "MIC", "setting": "[11]", "result": 3.12, "unit": "µM"}
    ]},
    {"smiles": "O=C(O)C(=O)Nc1ccc(NC(=O)c2cc(Br)c(Br)[nH]2)cc1", "values": [
      {"measurement": "pIC50", "setting": "[3]", "result": 6.74}
    ]},
    {"smiles": "CCn1cc(C(=O)N[C@H](CCCNC(=N)N)C(=O)N[C@@H](CC2CCCCC2)C(=O)N[C@H](CCCNC(=N)N)C(=O)N[C@@H](CC2CCCCC2)C(=O)N[C@H](CCCNC(=N)N)C(=O)N[C@@H](CC2CCCCC2)C(N)=O)c(=O)c2ccc(C)nc21", "values": [
      {"measurement": "IC50", "setting": "[5]", "result": 18, "unit": "µg/mL"},
      {"measurement": "IC50", "setting": "[23]", "result": 1, "unit": "µg/mL"},
      {"measurement": "pIC50", "setting": "[24]", "result": 4.60}
    ]},
    {"smiles": "COc1c(NC(=O)c2ccc(NC(=O)[C@@H](NC(=O)c3ccc(NC(=O)/C(C)=C/c4ccc(O)cc4)cc3)C(C)O)c(OC)c2O)ccc(C(=O)O)c1O", "note": "(stereo partly specified)", "values": [
      {"measurement": "MIC", "setting": "[12]", "result": 0.5, "unit": "µM"},
      {"measurement": "MIC", "setting": "[13]", "result": 2, "unit": "µM"}
    ]},
    {"smiles": "CCn1cc(-c2nnc(Nc3ccc(OC)cc3)o2)c(=O)c2cc(Br)c(C)nc21", "values": [
      {"measurement": "MIC", "setting": "[25]", "result": 5.7, "unit": "µg/mL"},
      {"measurement": "MIC", "setting": "[26]", "result": 5.7, "unit": "µg/mL"},
      {"measurement": "pIC50", "setting": "[3]", "result": 5.07},
      {"measurement": "MIC", "setting": "[27]", "result": 5.7, "unit": "µg/mL"},
      {"measurement": "MIC", "setting": "[28]", "result": 5.7, "unit": "µg/mL"},
      {"measurement": "MIC", "setting": "[29]", "result": 5.7, "unit": "µg/mL"},
      {"measurement": "MIC", "setting": "[30]", "result": 5.7, "unit": "µg/mL"}
    ]},
    {"smiles": "CCCCCCCOCC[N+]1(C)CCCc2ccccc21.[I-]", "note": "(stereo unspecified)", "values": [
      {"measurement": "MIC", "setting": "[19]", "result": 128, "unit": "µg/mL"},
      {"measurement": "MIC", "setting": "[20]", "result": 1, "unit": "µg/mL"},
      {"measurement": "MIC", "setting": "[21]", "result": 2, "unit": "µg/mL"}
    ]}
  ]
}
